Experimental data as given in ChEMBL document CHEMBL4325903, “N-Substituted aminoquinoline-pyrimidine hybrids: Synthesis, in vitro antimalarial activity evaluation and docking studies” (Eur J Med Chem, 2019).

Tests used:
Plasmodium falciparum [1] = assay: Antimalarial activity against chloroquine-resistant Plasmodium falciparum W2 infected in RBC after 72 hrs by LDH release assay; assay type: functional, organism-based; settings: W2, 72 h
Vero [2] = assay: Cytotoxicity against African green monkey Vero cells up to 10 uM after 48 hrs by neutral red assay; assay type: cell-based; settings: chlorocebus sabaeus
Plasmodium falciparum [3] = assay: Antimalarial activity against chloroquine-sensitive Plasmodium falciparum D6 infected in RBC after 72 hrs by LDH release assay; assay type: functional, organism-based; settings: D6, 72 h
[4] = Selectivity index, ratio of IC50 for cytotoxicity against African green monkey Vero cells to IC50 for chloroquine-resistant Plasmodium falciparum W2; assay type: toxicity, cell-based; settings: read-out: Ratio IC50
[5] = Selectivity index, ratio of IC50 for cytotoxicity against African green monkey Vero cells to IC50 for chloroquine-sensitive Plasmodium falciparum D6; assay type: toxicity, cell-based; settings: read-out: Ratio IC50
Vero [6] = assay: Cytotoxicity against African green monkey Vero cells after 48 hrs by neutral red assay; assay type: cell-based; settings: chlorocebus sabaeus

SMILES	IC50 (Plasmodium falciparum [1]) [nM]	Activity (Vero [2])	IC50 (Plasmodium falciparum [3]) [nM]	selectivity ratio [4]	selectivity ratio [5]	IC50 (Vero [6]) [nM]
Cc1cc(N(CCCNc2ccnc3cc(Cl)ccc23)Cc2ccccn2)nc(N2CCOCC2)n1	511	Non-Toxic	114	> 18.5	> 82.5	–
Cc1cc(N2CCCC2)nc(N(CCCNc2ccnc3cc(Cl)ccc23)Cc2cccs2)n1	40.1	Non-Toxic	35.9	> 24	> 26.8	–
Cc1cc(N(CCNc2ccnc3cc(Cl)ccc23)Cc2ccccn2)nc(N2CCCC2)n1	143	Non-Toxic	30	> 70	> 331	–
Cc1cc(N(CCNc2ccnc3cc(Cl)ccc23)Cc2ccccn2)nc(N2CCOCC2)n1	526	Non-Toxic	152	> 18.5	> 64.2	–
Cc1cc(N2CCOCC2)nc(N(CCCNc2ccnc3cc(Cl)ccc23)Cc2ccccn2)n1	334	Non-Toxic	1140	> 28.3	> 8.3	–
Cc1cc(N(CCCNc2ccnc3cc(Cl)ccc23)Cc2ccccn2)nc(N2CCN(C)CC2)n1	243	Non-Toxic	426	> 37.8	> 21.6	–
CCN1CCN(c2nc(C)cc(N(CCNc3ccnc4cc(Cl)ccc34)Cc3ccccn3)n2)CC1	93	Non-Toxic	28	> 98	> 326	–
Cc1cc(N(CCNc2ccnc3cc(Cl)ccc23)Cc2ccccn2)nc(N2CCCCC2)n1	494	Non-Toxic	65	> 19.7	> 151	–
Cc1cc(N2CCN(C)CC2)nc(N(CCNc2ccnc3cc(Cl)ccc23)Cc2ccccn2)n1	139	Non-Toxic	40	> 68	> 238	–
CCN1CCN(c2nc(C)cc(N(CCCNc3ccnc4cc(Cl)ccc34)Cc3ccccn3)n2)CC1	137	Non-Toxic	28	> 66	> 321	–
Cc1cc(Cl)nc(N(CCCNc2ccnc3cc(Cl)ccc23)Cc2cccs2)n1	462	Non-Toxic	119	> 22.5	> 87.2	–
CCN1CCN(c2cc(C)nc(N(CCNc3ccnc4cc(Cl)ccc34)Cc3ccccn3)n2)CC1	39	Non-Toxic	34	> 273	> 270	–
Cc1cc(N2CCN(C)CC2)nc(N(CCCNc2ccnc3cc(Cl)ccc23)Cc2cccs2)n1	19.9	Non-Toxic	38.9	> 45.8	> 23.4	–
Cc1cc(N(CCCNc2ccnc3cc(Cl)ccc23)Cc2cccs2)nc(Cl)n1	606	Non-Toxic	246	> 17.1	> 42.2	–
Cc1cc(N(CCNc2ccnc3cc(Cl)ccc23)Cc2ccccn2)nc(Cl)n1	492	Non-Toxic	233	> 22	> 46.6	–
C[C@@H]1CC[C@H]2[C@@H](C)C(=O)O[C@@H]3O[C@@]4(C)CC[C@@H]1[C@]32OO4 [ARTEMISININ]	16.2	Non-Toxic	17.1	> 52	> 49.2	–
CCN1CCN(c2nc(C)cc(N(CCCNc3ccnc4cc(Cl)ccc34)Cc3cccs3)n2)CC1	31.2	Non-Toxic	35.8	> 28.4	> 24.8	–

SMILES	IC50 (Plasmodium falciparum [1]) [nM]	Activity (Vero [2])	IC50 (Plasmodium falciparum [3]) [nM]	selectivity ratio [4]	selectivity ratio [5]	IC50 (Vero [6]) [nM]
Cc1cc(N(CCCNc2ccnc3cc(Cl)ccc23)Cc2cccs2)nc(N2CCOCC2)n1	409	–	55.2	22.7	168	9300
Cc1cc(N(CCCNc2ccnc3cc(Cl)ccc23)Cc2ccccn2)nc(Cl)n1	319	Non-Toxic	1390	> 33.5	> 7.6	–
Cc1cc(N2CCCC2)nc(N(CCCNc2ccnc3cc(Cl)ccc23)Cc2ccccn2)n1	389	Non-Toxic	1040	> 25.1	> 9.4	–
Cc1cc(N2CCOCC2)nc(N(CCCNc2ccnc3cc(Cl)ccc23)Cc2cccs2)n1	542	Non-Toxic	55.8	> 17.2	> 167	–
Cc1cc(Cl)nc(N(CCNc2ccnc3cc(Cl)ccc23)Cc2ccccn2)n1	1010	–	369	8.5	23.2	–
Clc1ccc2c(NCCCNCc3cccs3)ccnc2c1	75.1	Non-Toxic	424	> 19.1	> 33.8	–
Cc1cc(N2CCOCC2)nc(N(CCNc2ccnc3cc(Cl)ccc23)Cc2ccccn2)n1	248	Non-Toxic	311	> 39.1	> 31.2	–
Cc1cc(N2CCCCC2)nc(N(CCCNc2ccnc3cc(Cl)ccc23)Cc2ccccn2)n1	945	Non-Toxic	1190	> 10	> 7.9	–
Cc1cc(Cl)nc(N(CCCNc2ccnc3cc(Cl)ccc23)Cc2ccccn2)n1	804	Non-Toxic	1660	> 13	> 6.3	–
Cc1cc(N(CCCNc2ccnc3cc(Cl)ccc23)Cc2ccccn2)nc(N2CCCCC2)n1	819	Non-Toxic	93	> 11.6	> 102	–
Cc1cc(N(CCCNc2ccnc3cc(Cl)ccc23)Cc2cccs2)nc(N2CCN(C)CC2)n1	38.7	Non-Toxic	37	> 23.5	> 24.6	–
Cc1cc(N(CCCNc2ccnc3cc(Cl)ccc23)Cc2ccccn2)nc(N2CCCC2)n1	140	Non-Toxic	36	> 69	> 274	–
Cc1cc(N2CCN(C)CC2)nc(N(CCCNc2ccnc3cc(Cl)ccc23)Cc2ccccn2)n1	189	Non-Toxic	551	> 48.5	> 16.7	–
Cc1cc(N(CCCNc2ccnc3cc(Cl)ccc23)Cc2cccs2)nc(N2CCCC2)n1	202	Non-Toxic	42	> 47.7	> 229	–
Cc1cc(N2CCCC2)nc(N(CCNc2ccnc3cc(Cl)ccc23)Cc2ccccn2)n1	855	Non-Toxic	140	> 11.7	> 71.7	–
CCN(CC)CCCC(C)Nc1ccnc2cc(Cl)ccc12 (stereo not given) [CHLOROQUINE]	–	Non-Toxic	–	–	–	–
Cc1cc(N2CCCCC2)nc(N(CCNc2ccnc3cc(Cl)ccc23)Cc2ccccn2)n1	1440	Non-Toxic	252	> 6.8	> 38.6	–
